Columns and labels:
[1] = molecular target: JAK1 (Homo sapiens (Human), UniProt P23458); assay: Jak Biochemical HTRF Assay (JAK1); conditions: recombinant purified GST-tagged catalytic domain; HTRF; [ATP] 31.8 μM; [E] 1.405 nM
Procedure: (§1) Jak Biochemical HTRF Assay Protocol
(§2) The ability of compounds to inhibit the activity of JAK1, JAK2, JAK3, and Tyk2 was measured using a recombinant purified GST-tagged catalytic domain for each enzyme (Invitrogen JAK1 #M4290, JAK2 #M4290, JAK3 #M4290, Tyk2 #M4290) in an HTRF format biochemical assay. […] The basic assay protocol is as follows: First, 250 nL of diluted compounds in DMSO were dispensed into the wells of a dry 384-well Black plate (Greiner #781076) using a Labcyte Echo 555 acoustic dispenser. Subsequent reagent additions employed an Agilent Bravo. Next, 18 μL of 1.11× enzyme and 1.11× substrate in 1× assay buffer (Invitrogen kinase buffer # PV3189, 2 mM DTT, 0.05% BSA) were added to the wells and shaken and then preincubated for 30 minutes at room temperature to allow compound binding to equilibrate. After equilibration, 2 μL of 10×ATP in 1× assay buffer was added to initiate the kinase reaction and the plates were shaken and then incubated at room temperature for 120 minutes. At the end of the incubation, 20 μL of 2× stop buffer (streptavidin-Dylight 650 (Thermo #84547B/100 mL), Eu-tagged pY20 antibody (Perkin Elmer #AD0067), EDTA, HEPES, and Triton) was added to quench the reaction. Plates were shaken and centrifuged and then incubated 60 minutes at room temperature and then read on a Perkin Elmer Envision (Xex=337 nm, λem=665 and 615 nm, TRF delay time=20 μs). HTRF signal=10,000*665 nm reading/615 nm reading. After normalization to untreated controls, the percent inhibition of the HTRF signal at each compound concentration was calculated. The plot of percent inhibition versus the log of compound concentration was fit with a 4-parameter dose response equation to calculate IC50 values.

[2] = molecular target: JAK2 (Homo sapiens (Human), UniProt O60674); assay: Jak Biochemical HTRF Assay (JAK2); conditions: recombinant purified GST-tagged catalytic domain, [ATP] 8.5 μM, [E] 0.052 nM
Procedure: as §1, §2

JAK2, sequence (O60674 849-1124): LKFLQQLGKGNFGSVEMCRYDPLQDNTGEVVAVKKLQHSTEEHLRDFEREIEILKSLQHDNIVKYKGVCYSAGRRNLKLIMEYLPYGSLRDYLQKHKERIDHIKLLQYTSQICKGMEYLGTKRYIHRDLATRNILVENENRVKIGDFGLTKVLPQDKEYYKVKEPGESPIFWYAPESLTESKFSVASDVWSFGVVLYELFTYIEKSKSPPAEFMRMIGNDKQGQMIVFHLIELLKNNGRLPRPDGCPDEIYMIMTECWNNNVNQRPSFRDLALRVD
JAK1, sequence (P23458 875-1153): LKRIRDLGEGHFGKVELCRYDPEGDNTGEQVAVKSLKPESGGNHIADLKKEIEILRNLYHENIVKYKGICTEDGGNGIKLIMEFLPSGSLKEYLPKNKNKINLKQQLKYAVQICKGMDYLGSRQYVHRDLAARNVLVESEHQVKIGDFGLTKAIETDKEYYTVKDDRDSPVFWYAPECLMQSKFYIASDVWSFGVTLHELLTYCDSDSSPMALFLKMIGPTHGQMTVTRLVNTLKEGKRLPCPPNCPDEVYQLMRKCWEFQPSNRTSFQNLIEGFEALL

| IC50 [1] | IC50 [2] | SMILES |
| --- | --- | --- |
| 1.13 nM | 1.92 nM | CCC1(n2nc(Nc3ccc(C4CCNCC4)cc3)c3c(=O)[nH]ccc32)CCN(C(=O)OC(C)(C)C)CC1 [Example 2-23, tert-butyl 4-ethyl-4-(4-oxo-3-(4-(piperidin-4-yl)phenylamino)-4,5-dihydropyrazolo[4,3-c]pyridin-1-yl) piperidine-1-carboxylate] |
| 3.21 nM | 3.16 nM | CCC1(n2nc(Nc3ccc4c(c3)CN(C3(C)CCC(F)(F)CC3)C4=O)c3c(=O)[nH]ccc32)CCN(C(=O)OC(C)(C)C)CC1 [Example 2-2, tert-butyl 4-(3-(2-(4,4-difluoro-1-methylcyclohexyl)-1-oxoisoindolin-5-ylamino)-4-oxo-4,5-dihydropyrazolo[4,3-c]pyridin-1-yl)-4-ethylpiperidine-1-carboxylate] |
| 0.37 nM | 0.47 nM | CCC1(n2nc(Nc3ccc(C(=O)N4CCOCC4)c(C)c3)c3c(=O)[nH]ccc32)CCN(C(=O)OC(C)(C)C)CC1 [Example 2-9, tert-butyl 4-ethyl-4-(3-((3-methyl-4-(morpholine-4-carbonyl)phenyl)amino)-4-oxo-4,5-dihydro-1H-pyrazolo[4,3-c]pyridin-1-yl) piperidine-1-carboxylate] |
| 0.3 nM | 0.43 nM | CCC1(n2nc(Nc3ccc(C(=O)N4CC5(COC5)C4)c(C)c3)c3c(=O)[nH]ccc32)CCN(C(=O)OC(C)(C)C)CC1 [Example 2-14, tert-butyl 4-ethyl-4-(3-((3-methyl-4-(2-oxa-6-azaspiro[3.3]heptane-6-carbonyl)phenyl)amino)-4-oxo-4,5-dihydro-1H-pyrazolo [4,3-c]pyridin-1-yl) piperidine-1-carboxylate] |
| 0.73 nM | 1.21 nM | CCC1(n2nc(Nc3ccc(C(=O)N4CCOCC4(C)C)c(C)c3)c3c(=O)[nH]ccc32)CCN(C(=O)OC(C)(C)C)CC1 [Example 3-5, tert-butyl 4-[3-({4-[(3,3-dimethylmorpholin-4-yl)carbonyl]-3-methylphenyl}amino)-4-oxo-4,5-dihydro-1H-pyrazolo[4,3-c]pyridin-1-yl]-4-ethylpiperidine-1-carboxylate] |
| 0.73 nM | 1.06 nM | CCC1(n2nc(Nc3ccc(C(=O)N4CCCC4)c(C)c3)c3c(=O)[nH]ccc32)CCN(C(=O)OC(C)(C)C)CC1 [Example 2-33, tert-butyl 4-ethyl-4-(3-(3-methyl-4-(pyrrolidine-1-carbonyl)phenylamino)-4-oxo-4,5-dihydropyrazolo[4,3-c]pyridin-1-yl) piperidine-1-carboxylate] |
| 10.2 nM | 71.3 nM | CCC1(n2nc(Nc3ccc(C4CCN(CC(F)(F)F)CC4)cc3)c3c(=O)[nH]ccc32)CCN(C(=O)OC(C)(C)C)CC1 [Example 2-3, tert-butyl 4-ethyl-4-(4-oxo-3-(4-(1-(2,2,2-trifluoroethyl)piperidin-4-yl)phenylamino)-4,5-dihydropyrazolo [4,3-c]pyridin-1-yl) piperidine-1-carboxylate] |
| 0.56 nM | 0.74 nM | CCC1(n2nc(Nc3ccc(C(=O)N4CCOCC4)c(F)c3)c3c(=O)[nH]ccc32)CCN(C(=O)OC(C)(C)C)CC1 [Example 2-12, tert-butyl 4-ethyl-4-(3-((3-fluoro-4-(morpholine-4-carbonyl)phenyl)amino)-4-oxo-4,5-dihydro-1H-pyrazolo[4,3-c]pyridin-1-yl) piperidine-1-carboxylate] |
| 0.12 nM | 0.64 nM | CCC1(n2nc(Nc3ccc(S(C)(=O)=O)cc3)c3c(=O)[nH]ccc32)CCN(C(=O)OC(C)(C)C)CC1 [Example 1-3, tert-butyl 4-ethyl-4-(3-(4-(methylsulfonyl)phenyl-amino)-4-oxo-4,5-dihydropyrazolo[4,3-c]pyridin-1-yl)piperidine-1-carboxylate] |
| 0.47 nM | 0.49 nM | CCC1(n2nc(Nc3ccc(C(=O)N4CC5CCC(C4)O5)c(C)c3)c3c(=O)[nH]ccc32)CCN(C(=O)OC(C)(C)C)CC1 [Example 2-1, tert-butyl 4-(3-((4-(8-oxa-3-azabicyclo[3.2.1]octane-3-carbonyl)-3-methylphenyl)amino)-4-oxo-4,5-dihydro-1H-pyrazolo[4,3-c]pyridin-1-yl)-4-ethylpiperidine-1-carboxylate] |
| 0.54 nM | 0.6 nM | CCC1(n2nc(Nc3ccc4c(c3)CN(C3CCOCC3)S4(=O)=O)c3c(=O)[nH]ccc32)CCN(C(=O)OC(C)(C)C)CC1 [Example 2-5, tert-butyl 4-ethyl-4-(3-{[2-(oxan-4-yl)-1,1-dioxo-2,3-dihydro-1,2-benzothiazol-5-yl]amino}-4-oxo-1H,4H,5H-pyrazolo [4,3-c]pyridin-1-yl) piperidine-1-carboxylate] |
| 1.19 nM | 1.44 nM | CCC1(n2nc(Nc3ccc(C(=O)N4CCC(F)(F)CC4)c(C)c3)c3c(=O)[nH]ccc32)CCN(C(=O)OC(C)(C)C)CC1 [Example 2-26, tert-butyl 4-(3-(4-(4,4-difluoropiperidine-1-carbonyl)-3-methylphenylamino)-4-oxo-4,5-dihydropyrazolo [4,3-c]pyridin-1-yl)-4-ethylpiperidine-1-carboxylate] |
| 0.56 nM | 0.68 nM | CCC1(n2nc(Nc3ccc(C(=O)N4CCC(N5CCSCC5)CC4)c(C)c3)c3c(=O)[nH]ccc32)CCN(C(=O)OC(C)(C)C)CC1 [Example 3-12, tert-butyl 4-ethyl-4-[3-({3-methyl-4-[(4-thiomorpholin-4-ylpiperidin-1-yl)carbonyl]phenyl}amino)-4-oxo-4,5-dihydro-1H-pyrazolo[4,3-c]pyridin-1-yl] piperidine-1-carboxylate] |
| 2.5 nM | 2.5 nM | CCC1(n2nc(Nc3ccc([C@@]4(C(F)(F)F)CCCN4)cc3)c3c(=O)[nH]ccc32)CCN(C(=O)OC(C)(C)C)CC1 (single isomer, unassigned) [Example 2-34, (R or S)-tert-butyl 4-ethyl-4-(4-oxo-3-(4-(2-(trifluoromethyl)pyrrolidin-2-yl)phenylamino)-4,5-dihydropyrazolo[4,3-c]pyridin-1-yl) piperidine-1-carboxylate] |
| 0.29 nM | 0.36 nM | CCC1(n2nc(Nc3ccc4c(c3)CN(C3CCN(C)CC3)S4(=O)=O)c3c(=O)[nH]ccc32)CCN(C(=O)OC(C)(C)C)CC1 [Example 2-30, tert-butyl 4-ethyl-4-(3-((2-(1-methylpiperidin-4-yl)-1,1-dioxido-2,3-dihydrobenzo [d]isothiazol-5-yl)amino)-4-oxo-4,5-dihydro-1H-pyrazolo [4,3-c]pyridin-1-yl) piperidine-1-carboxylate] |

| SMILES | IC50 [1] | IC50 [2] |
| --- | --- | --- |
| CCC1(n2nc(Nc3ccc(C(=O)O)c(C)c3)c3c(=O)[nH]ccc32)CCN(C(=O)OC(C)(C)C)CC1 [Example 2-44, 4-((1-(1-(tert-butoxycarbonyl)-4-ethylpiperidin-4-yl)-4-oxo-4,5-dihydro-1H-pyrazolo [4,3-c]pyridin-3-yl)amino)-2-methylbenzoic acid] | 0.23 nM | 2.1 nM |
| CCC1(n2nc(Nc3ccc(C(=O)N4CCOC[C@H]4C(C)C)c(C)c3)c3c(=O)[nH]ccc32)CCN(C(=O)OC(C)(C)C)CC1 [Example 3-8, tert-butyl 4-ethyl-4-{3-[(3-methyl-4-{[(3R)-3-(1-methylethyl)morpholin-4-yl]carbonyl}phenyl)amino]-4-oxo-4,5-dihydro-1H-pyrazolo[4,3-0]pyridin-1-yl} piperidine-1-carboxylate] | 0.93 nM | 1.01 nM |
